According to PubChem BioAssay AID256 (DTP/NCI, 2004):
Inconclusive results and toxic doses are left out.

Tested on: CD2F1 mice, L1210 leukemia ip, survival T/C
Experiment: NCI In Vivo Anticancer Drug Screen. Data for tumor model L1210 Leukemia (intraperitoneal) in CD2F1 (CDF1) mice
Settings: higher = longer survival
Procedure, shortened: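 Ratio T/C, where T is the treated-group value and C the vehicle-dosed control value, from mice implanted with a transplantable tumor.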

[1] = endpoint: mean survival time, dose: 75.0 mg/kg/injection, schedule: Q01DX001 (ip), vehicle: saline
[2] = endpoint: mean survival time, dose: 150.0 mg/kg/injection, schedule: Q01DX001 (ip), vehicle: saline
[3] = endpoint: mean survival time, dose: 300.0 mg/kg/injection, schedule: Q01DX001 (ip), vehicle: saline
[4] = endpoint: mean survival time, dose: 100.0 mg/kg/injection, schedule: Q01DX009 (ip), vehicle: saline with Tween-80
[5] = endpoint: mean survival time, dose: 200.0 mg/kg/injection, schedule: Q01DX009 (ip), vehicle: saline with Tween-80
[6] = endpoint: mean survival time, dose: 400.0 mg/kg/injection, schedule: Q01DX009 (ip), vehicle: saline with Tween-80
[7] = endpoint: mean survival time, dose: 100.0 mg/kg/injection, schedule: Q01DX001 (ip), vehicle: saline with Tween-80
[8] = endpoint: mean survival time, dose: 200.0 mg/kg/injection, schedule: Q01DX001 (ip), vehicle: saline with Tween-80
[9] = endpoint: mean survival time, dose: 400.0 mg/kg/injection, schedule: Q01DX001 (ip), vehicle: saline with Tween-80
[10] = endpoint: mean survival time, dose: 100.0 mg/kg/injection, schedule: Q01DX001 (ip), vehicle: saline
[11] = endpoint: mean survival time, dose: 200.0 mg/kg/injection, schedule: Q01DX001 (ip), vehicle: saline
[12] = endpoint: mean survival time, dose: 400.0 mg/kg/injection, schedule: Q01DX001 (ip), vehicle: saline
[13] = endpoint: mean survival time, dose: 100.0 mg/kg/injection, schedule: Q04DX003 (ip), vehicle: saline
[14] = endpoint: mean survival time, dose: 200.0 mg/kg/injection, schedule: Q04DX003 (ip), vehicle: saline

## COc1nc(NC2OC(CO)C(O)C(O)C2O)c(Br)c(=O)[nH]1 (stereo not drawn)
endpoint: median survival time, dose: 12.5 mg/kg/injection, schedule: Q01DX005 (ip), vehicle: saline
  T/C: 100 % of control
endpoint: median survival time, dose: 25.0 mg/kg/injection, schedule: Q01DX005 (ip), vehicle: saline
  T/C: 101 % of control
endpoint: median survival time, dose: 50.0 mg/kg/injection, schedule: Q01DX005 (ip), vehicle: saline
  T/C: 102 % of control
endpoint: median survival time, dose: 100.0 mg/kg/injection, schedule: Q01DX005 (ip), vehicle: saline
  T/C: 101 % of control
endpoint: median survival time, dose: 200.0 mg/kg/injection, schedule: Q01DX005 (ip), vehicle: saline
  T/C: 101 % of control

## O=c1ccccn1C1CC(O)C(CO)O1 (stereo not drawn)
endpoint: mean survival time, dose: 100.0 mg/kg/injection, schedule: Q01DX005 (ip), vehicle: saline
  T/C: 101 % of control
endpoint: mean survival time, dose: 200.0 mg/kg/injection, schedule: Q01DX005 (ip), vehicle: saline
  T/C: 103 % of control

## C#CC(=O)c1ccccc1
endpoint: mean survival time, dose: 9.4 mg/kg/injection, schedule: Q04DX003 (ip), vehicle: saline
  T/C: 93 % of control

## CCOC(=O)c1c(NC(=O)CBr)sc(C)c1C
[1]
  T/C: 104 % of control
[2]
  T/C: 98 % of control
[3]
  T/C: 104 % of control

## CC(C)c1ccccc1OS(=O)(=O)c1cccc([N+](=O)[O-])c1
[4]
  T/C: 98 % of control
endpoint: mean survival time, dose: 100.0 mg/kg/injection, schedule: Q04DX003 (ip), vehicle: saline with Tween-80
  T/C: 100 % of control
[5]
  T/C: 100 % of control
endpoint: mean survival time, dose: 200.0 mg/kg/injection, schedule: Q04DX003 (ip), vehicle: saline with Tween-80
  T/C: 99 % of control
[6]
  T/C: 100 % of control
endpoint: mean survival time, dose: 400.0 mg/kg/injection, schedule: Q04DX003 (ip), vehicle: saline with Tween-80
  T/C: 106 % of control

## CN(C)S(=O)(=O)/C=C(\Cl)c1ccccc1
[7]
  T/C: 97 % of control
[8]
  T/C: 100 % of control
[9]
  T/C: 104 % of control

## OC(c1ccc(Cl)cc1)c1ccc(Cl)cc1
[7]
  T/C: 105 % of control
[8]
  T/C: 90 % of control
[9]
  T/C: 109 % of control

## COC(=O)NC(S(=O)(=O)O)S(=O)(=O)O
[10]
  T/C: 108 % of control
[11]
  T/C: 101 % of control
[12]
  T/C: 108 % of control

## O/N=C/C1CCCC[N-]1.[Co+3].[O-]/N=C/C1CCCC[N-]1.[O-]/N=C/C1CCCC[N-]1.[O-][Cl+3]([O-])([O-])O (stereo not drawn)
[10]
  T/C: 108 % of control
[11]
  T/C: 96 % of control
[12]
  T/C: 96 % of control

## Clc1ccc(C2(c3ccncc3)OCCO2)cc1
[13]
  T/C: 101 % of control
[14]
  T/C: 101 % of control

## CCN(CC)CCN(C)C(=O)C(O)(c1ccccc1)c1ccccc1
[1]
  T/C: 100 % of control
[2]
  T/C: 103 % of control
[3]
  T/C: 102 % of control

## CC12OC3(C)C4C(=O)OC1C1(C)OC4(C)C3C(=O)OC21
[10]
  T/C: 106 % of control
[13]
  T/C: 100 % of control
[11]
  T/C: 102 % of control
[14]
  T/C: 102 % of control
[12]
  T/C: 100 % of control
endpoint: mean survival time, dose: 400.0 mg/kg/injection, schedule: Q04DX003 (ip), vehicle: saline
  T/C: 97 % of control

## CCOC(=O)CCC1(C(=O)OC)C(=O)CCCCC/C=C/1C(=O)OC (stereo not drawn)
[4]
  T/C: 101 % of control
[5]
  T/C: 93 % of control
[6]
  T/C: 96 % of control

## COC1OC(COC(C)=O)C(OC(C)=O)C(NC(=O)N(CCCl)N=O)C1OC(C)=O (stereo not drawn)
endpoint: mean survival time, dose: 13.0 mg/kg/injection, schedule: Q01DX001 (ip), vehicle: saline with Tween-80
  T/C: 240 % of control
endpoint: mean survival time, dose: 20.0 mg/kg/injection, schedule: Q01DX001 (ip), vehicle: saline with Tween-80
  T/C: 469 % of control
endpoint: mean survival time, dose: 30.0 mg/kg/injection, schedule: Q01DX001 (ip), vehicle: saline with Tween-80
  T/C: 535 % of control
endpoint: mean survival time, dose: 44.0 mg/kg/injection, schedule: Q01DX001 (ip), vehicle: saline with Tween-80
  T/C: 459 % of control
endpoint: mean survival time, dose: 67.0 mg/kg/injection, schedule: Q01DX001 (ip), vehicle: saline with Tween-80
  T/C: 245 % of control
